ChEMBL document CHEMBL5625191, “A review of progress in o-aminobenzamide-based HDAC inhibitors with dual targeting capabilities for cancer therapy” (Eur J Med Chem, 2023)

What was measured:
PC-3 = assay: Antiproliferative activity against human PC-3 cells assessed as inhibition of cell growth incubated for 48 hrs by MTT assay; type: functional, cell-based; conditions: PC-3, 48 h
Jurkat = assay: Antiproliferative activity against human Jurkat cells assessed as inhibition of cell growth incubated for 48 hrs by MTT assay; type: functional, cell-based
HEL = assay: Antiproliferative activity against human HEL cells assessed as inhibition of cell growth incubated for 48 hrs by MTT assay; type: functional, cell-based
Histone deacetylase 3 [1] = biological target: T1, Histone deacetylase 3 (Homo sapiens, UniProt O15379); assay: Inhibition of HDAC3 in human HeLa nuclear extract using Boc-Lys(Ac)-AMC or Boc-Lys(Tfa)-AMC as substrate preincubated for 5 mins followed by substrate addition and measured after 30 mins by fluorescence assay; type: cell-free
T1 sequence (O15379 whole entry): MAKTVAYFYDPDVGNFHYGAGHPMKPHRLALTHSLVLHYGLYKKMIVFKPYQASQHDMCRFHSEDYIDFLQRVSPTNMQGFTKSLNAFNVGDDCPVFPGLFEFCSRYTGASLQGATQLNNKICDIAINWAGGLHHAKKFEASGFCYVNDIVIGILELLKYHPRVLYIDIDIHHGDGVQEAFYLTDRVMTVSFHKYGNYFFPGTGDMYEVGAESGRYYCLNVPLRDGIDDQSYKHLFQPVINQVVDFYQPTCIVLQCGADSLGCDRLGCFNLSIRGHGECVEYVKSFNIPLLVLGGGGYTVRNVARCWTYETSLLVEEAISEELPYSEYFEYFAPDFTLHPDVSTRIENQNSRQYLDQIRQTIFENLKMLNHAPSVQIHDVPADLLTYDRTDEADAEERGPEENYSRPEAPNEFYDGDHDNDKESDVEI

A549 [2] = assay: Antiproliferative activity against human A549 cells assessed as inhibition of cell growth incubated for 48 hrs by MTT assay; type: functional, cell-based; conditions: A549, 48 h
HeLa [3] = assay: Antiproliferative activity against human HeLa cells assessed as inhibition of cell growth incubated for 48 hrs by MTT assay; type: functional, cell-based
Histone deacetylase 1 [4] = biological target: T2, Histone deacetylase 1 (Homo sapiens, UniProt Q13547); assay: Inhibition of HDAC1 in human HeLa nuclear extract using Boc-Lys(Ac)-AMC or Boc-Lys(Tfa)-AMC as substrate preincubated for 5 mins followed by substrate addition and measured after 30 mins by fluorescence assay; type: cell-free
T2 sequence (Q13547 whole entry): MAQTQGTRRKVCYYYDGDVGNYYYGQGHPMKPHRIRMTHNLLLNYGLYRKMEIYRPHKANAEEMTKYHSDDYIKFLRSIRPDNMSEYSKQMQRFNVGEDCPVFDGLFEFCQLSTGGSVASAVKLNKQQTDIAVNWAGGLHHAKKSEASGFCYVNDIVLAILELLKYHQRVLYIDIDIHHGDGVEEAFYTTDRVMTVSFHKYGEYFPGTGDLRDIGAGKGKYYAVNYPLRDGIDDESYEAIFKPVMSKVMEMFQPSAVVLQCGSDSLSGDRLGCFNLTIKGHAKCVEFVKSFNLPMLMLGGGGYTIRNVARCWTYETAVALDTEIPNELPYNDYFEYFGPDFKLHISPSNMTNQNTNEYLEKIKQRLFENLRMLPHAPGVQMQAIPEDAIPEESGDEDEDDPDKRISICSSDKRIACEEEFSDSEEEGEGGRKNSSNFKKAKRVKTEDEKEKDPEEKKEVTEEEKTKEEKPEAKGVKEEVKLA

HCT-116 [5] = assay: Antiproliferative activity against human HCT-116 cells assessed as inhibition of cell growth incubated for 48 hrs by MTT assay; type: functional, cell-based; conditions: HCT-116, 48 h
MOLT-4 = assay: Antiproliferative activity against human MOLT-4 cells assessed as inhibition of cell growth incubated for 48 hrs by MTT assay; type: functional, cell-based; conditions: MOLT-4, 48 h
Histone deacetylase 2 [6] = biological target: T3, Histone deacetylase 2 (Homo sapiens, UniProt Q92769); assay: Inhibition of HDAC2 in human HeLa nuclear extract using Boc-Lys(Ac)-AMC or Boc-Lys(Tfa)-AMC as substrate preincubated for 5 mins followed by substrate addition and measured after 30 mins by fluorescence assay; type: cell-free
T3 sequence (Q92769 whole entry): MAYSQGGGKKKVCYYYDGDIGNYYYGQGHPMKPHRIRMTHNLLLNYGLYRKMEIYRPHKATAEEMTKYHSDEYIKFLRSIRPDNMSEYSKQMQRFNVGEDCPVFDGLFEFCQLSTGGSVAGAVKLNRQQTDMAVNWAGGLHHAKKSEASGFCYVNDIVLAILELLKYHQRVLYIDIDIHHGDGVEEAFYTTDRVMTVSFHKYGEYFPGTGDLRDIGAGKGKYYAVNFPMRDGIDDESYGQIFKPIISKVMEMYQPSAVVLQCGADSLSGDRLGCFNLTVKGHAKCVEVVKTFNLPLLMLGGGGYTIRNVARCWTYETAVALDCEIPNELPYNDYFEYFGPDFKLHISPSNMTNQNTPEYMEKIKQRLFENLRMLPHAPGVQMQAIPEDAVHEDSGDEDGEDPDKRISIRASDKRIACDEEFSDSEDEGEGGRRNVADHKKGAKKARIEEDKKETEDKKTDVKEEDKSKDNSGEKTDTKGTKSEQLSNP

HCT-116 [7] = assay: Antitumor activity against human HCT-116 cells xenografted in BALB/c nude mouse assessed as increase in increment ratio at 30 mg/kg, po administered for 3 days; type: functional; conditions: time 3 day
HCT-116 [8] = assay: Antitumor activity against human HCT-116 cells xenografted in BALB/c nude mouse assessed as tumor growth inhibition at 30 mg/kg, po administered for 3 days; type: functional; conditions: HCT-116, 72 h, time 3 day, read-out: TGI
MCF7 [9] = assay: Antiproliferative activity against human MCF7 cells assessed as inhibition of cell growth incubated for 48 hrs by CCK-8 assay; type: functional, cell-based; conditions: MCF7, 48 h
HCT-116 [10] = assay: Antitumor activity against human HCT-116 cells xenografted in BALB/c mouse assessed tumor growth inhibition at 150 mg/kg, po bid measured for every 3 days; type: functional; conditions: HCT-116, 72 h, time 3 day, read-out: TGI
U-937 = assay: Cytotoxicity against human U-937 cells assessed as inhibition of cell growth; type: functional, cell-based
[11] = biological target: Protein deacetylase HDAC6 (Homo sapiens, UniProt Q9UBN7); assay: Inhibition of HDAC6 (unknown origin)
Chain of Protein deacetylase HDAC6 (Q9UBN7 whole entry): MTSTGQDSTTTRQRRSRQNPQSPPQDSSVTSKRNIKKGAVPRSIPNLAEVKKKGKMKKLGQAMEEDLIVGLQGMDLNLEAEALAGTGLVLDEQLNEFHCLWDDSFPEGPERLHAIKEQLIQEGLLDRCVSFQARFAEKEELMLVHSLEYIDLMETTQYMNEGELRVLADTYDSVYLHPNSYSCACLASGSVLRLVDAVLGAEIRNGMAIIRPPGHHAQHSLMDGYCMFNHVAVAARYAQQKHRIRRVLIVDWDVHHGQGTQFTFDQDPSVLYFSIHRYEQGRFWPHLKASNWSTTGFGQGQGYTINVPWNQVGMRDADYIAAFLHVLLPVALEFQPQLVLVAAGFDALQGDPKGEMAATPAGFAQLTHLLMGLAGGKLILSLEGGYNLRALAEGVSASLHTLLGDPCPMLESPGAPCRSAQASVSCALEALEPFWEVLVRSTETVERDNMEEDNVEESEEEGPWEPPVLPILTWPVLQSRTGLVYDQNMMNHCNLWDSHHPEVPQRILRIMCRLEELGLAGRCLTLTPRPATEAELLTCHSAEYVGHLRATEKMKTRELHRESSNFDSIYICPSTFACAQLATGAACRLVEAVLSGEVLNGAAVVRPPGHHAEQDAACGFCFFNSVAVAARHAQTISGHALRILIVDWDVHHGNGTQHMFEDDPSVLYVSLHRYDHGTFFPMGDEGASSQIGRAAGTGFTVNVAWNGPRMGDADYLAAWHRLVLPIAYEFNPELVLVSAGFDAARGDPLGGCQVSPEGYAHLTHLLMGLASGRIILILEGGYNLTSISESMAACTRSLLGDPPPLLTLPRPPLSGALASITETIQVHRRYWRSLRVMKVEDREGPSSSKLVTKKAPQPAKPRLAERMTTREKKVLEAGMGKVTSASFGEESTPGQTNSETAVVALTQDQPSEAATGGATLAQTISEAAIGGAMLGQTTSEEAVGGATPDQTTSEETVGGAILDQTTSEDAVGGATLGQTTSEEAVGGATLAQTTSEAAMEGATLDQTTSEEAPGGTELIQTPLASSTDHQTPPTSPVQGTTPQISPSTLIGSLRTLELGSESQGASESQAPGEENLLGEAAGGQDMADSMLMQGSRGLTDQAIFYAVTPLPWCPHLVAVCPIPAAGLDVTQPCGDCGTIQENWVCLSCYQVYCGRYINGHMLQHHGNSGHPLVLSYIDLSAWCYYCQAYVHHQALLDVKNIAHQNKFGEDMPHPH

HepG2 [12] = assay: Cytotoxicity against human HepG2 cells assessed as inhibition of cell growth; type: functional, cell-based
HeLa [13] = assay: Cytotoxicity against human HeLa cells assessed as inhibition of cell growth; type: functional, cell-based
MCF7 [14] = assay: Cytotoxicity against human MCF7 cells assessed as inhibition of cell growth; type: functional, cell-based
MGC-803 = assay: Cytotoxicity against human MGC-803 cells assessed as inhibition of cell growth; type: functional, cell-based
Histone deacetylase 2 [15] = biological target: T3, Histone deacetylase 2; assay: Inhibition of HDAC2 (unknown origin)
Histone deacetylase [16] = assay: Inhibition of HDAC (unknown origin); type: protein assay, Homo sapiens
Histone deacetylase 1 [17] = biological target: T2, Histone deacetylase 1; assay: Inhibition of full length C-terminal his6-tagged human recombinant HDAC1 (1 to 482 residues) expressed in Sf9 cells using fluorogenic Boc-Lys(Ac)-AMC as substrate incubated for 90 mins by Synergy H1 plate reader analysis
Histone deacetylase 2 [18] = biological target: T3, Histone deacetylase 2; assay: Inhibition of full length C-terminal FLAG-tagged human recombinant HDAC2 (1 to 488 residues) expressed in Sf9 cells using fluorogenic Boc-Lys(Ac)-AMC as substrate incubated for 90 mins by Synergy H1 plate reader analysis
[19] = biological target: Macrophage migration inhibitory factor (Homo sapiens, UniProt P14174); assay: Inhibition of MIF (unknown origin) tautomerase activity incubated for 10 mins by microplate reader analysis
Chain of Macrophage migration inhibitory factor (P14174 whole entry, the tested form may be a part): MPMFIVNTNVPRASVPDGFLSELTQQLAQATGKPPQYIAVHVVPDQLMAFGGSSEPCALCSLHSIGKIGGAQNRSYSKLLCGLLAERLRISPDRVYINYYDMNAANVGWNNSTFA

Histone deacetylase 3 [20] = biological target: T1, Histone deacetylase 3; assay: Inhibition of C-terminl his-tagged human recombinant HDAC3 (1 to 428 residues) expressed in Sf9 cells using fluorogenic Boc-Lys(Ac)-AMC as substrate incubated for 90 mins by Synergy H1 plate reader analysis
HepG2 [21] = assay: Antiproliferative activity against human HepG2 cells assessed as inhibition of cell growth incubated for 72 hrs by CCK-8 assay; type: functional, cell-based; conditions: HepG2, 72 h
A549 [22] = assay: Antiproliferative activity against human A549 cells assessed as inhibition of cell growth incubated for 72 hrs by CCK-8 assay; type: functional, cell-based; conditions: A549, 72 h
SK-N-BE(2) = assay: Antiproliferative activity against human SK-N-BE(2) cells assessed as inhibition of cell growth incubated for 72 hrs by CCK-8 assay; type: functional, cell-based; conditions: SKNBE2, 72 h
NCI-H2228 = assay: Antiproliferative activity against human NCI-H2228 cells assessed as inhibition of cell growth incubated for 72 hrs by CCK-8 assay; type: functional, cell-based; conditions: NCI-H2228, 72 h
RPMI-8226 = assay: Antiproliferative activity against human RPMI-8226 cells assessed as inhibition of cell growth incubated for 72 hrs by XTT assay; type: functional, cell-based; conditions: RPMI-8226, 72 h
[23] = Antiproliferative activity against human Bortezomib-resistant RPMI-8226 cells assessed as inhibition of cell growth incubated for 72 hrs by XTT assay; type: functional, cell-based; conditions: Bortezomib-resistant RPMI-8226, 72 h
[24] = biological target: Histone deacetylase (Homo sapiens) (UniProt Q13547+O15379+Q9UBN7+Q92769+Q9UQL6+Q8WUI4+Q9BY41+Q96DB2+P56524+Q9UKV0+Q969S8); assay: Inhibition of HDAC in human RPMI-8226 cells at 10 uM incubated for 8 hrs relative to control; type: cell-based
Ephrin type-A receptor 2 = Ephrin type-A receptor 2 (Homo sapiens, UniProt P29317); assay: Inhibition of EphA2 (unknown origin) incubated for 30 mins by TR-FRET assay
Chain of Ephrin type-A receptor 2 (P29317 whole entry): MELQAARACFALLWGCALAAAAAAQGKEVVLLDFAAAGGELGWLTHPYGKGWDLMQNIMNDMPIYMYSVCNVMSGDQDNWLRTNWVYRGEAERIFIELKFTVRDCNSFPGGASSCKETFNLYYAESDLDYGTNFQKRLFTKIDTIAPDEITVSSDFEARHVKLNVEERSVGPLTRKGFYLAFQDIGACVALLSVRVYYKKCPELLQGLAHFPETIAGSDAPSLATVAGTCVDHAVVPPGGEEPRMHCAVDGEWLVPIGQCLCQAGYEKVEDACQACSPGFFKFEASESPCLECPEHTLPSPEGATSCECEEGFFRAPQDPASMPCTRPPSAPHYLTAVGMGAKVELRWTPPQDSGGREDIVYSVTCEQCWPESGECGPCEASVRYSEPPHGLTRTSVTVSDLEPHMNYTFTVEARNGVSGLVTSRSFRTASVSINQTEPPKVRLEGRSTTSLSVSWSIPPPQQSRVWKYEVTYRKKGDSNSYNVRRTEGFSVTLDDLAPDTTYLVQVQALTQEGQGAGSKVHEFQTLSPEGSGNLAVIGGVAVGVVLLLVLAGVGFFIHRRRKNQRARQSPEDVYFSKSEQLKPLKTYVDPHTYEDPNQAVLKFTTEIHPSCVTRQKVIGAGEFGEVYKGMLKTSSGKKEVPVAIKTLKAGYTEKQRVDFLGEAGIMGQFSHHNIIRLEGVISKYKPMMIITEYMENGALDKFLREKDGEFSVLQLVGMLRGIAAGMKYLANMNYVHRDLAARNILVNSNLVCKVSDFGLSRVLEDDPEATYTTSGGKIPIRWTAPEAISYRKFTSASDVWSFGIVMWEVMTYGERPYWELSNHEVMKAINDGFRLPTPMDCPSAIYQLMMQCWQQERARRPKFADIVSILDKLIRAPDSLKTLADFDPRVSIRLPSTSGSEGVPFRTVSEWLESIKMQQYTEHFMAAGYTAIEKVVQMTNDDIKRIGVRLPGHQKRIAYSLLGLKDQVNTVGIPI

MCF7 [25] = assay: Antiproliferative activity against human MCF7 cells assessed as inhibition of cell growth incubated for 48 hrs by MTT assay; type: functional, cell-based; conditions: MCF7, 48 h
Histone deacetylase [26] = assay: Inhibition of HDAC in human HeLa nuclear extract using Boc-Lys(Ac)-AMC or Boc-Lys(Tfa)-AMC as substrate preincubated for 5 mins followed by substrate addition and measured after 30 mins by fluorescence assay; type: cell-free

Compound | IC50 (PC-3) [nM] | IC50 (Jurkat) [nM] | IC50 (HEL) [nM] | IC50 (Histone deacetylase 3 [1]) [nM] | IC50 (A549 [2]) [nM] | IC50 (HeLa [3]) [nM] | IC50 (Histone deacetylase 1 [4]) [nM] | IC50 (HCT-116 [5]) [nM] | IC50 (MOLT-4) [nM] | IC50 (Histone deacetylase 2 [6]) [nM] | further results
Nc1ccccc1NC(=O)CCCCCCCOc1no[n+]([O-])c1S(=O)(=O)c1ccccc1 | 1920 | 470 | 420 | 500 | 1550 | 1560 | 660 | 790 | 720 | 1200 | –
Nc1ccccc1NC(=O)CCCCOc1no[n+]([O-])c1S(=O)(=O)c1ccccc1 | 2690 | 540 | 320 | 620 | 1030 | 1230 | 620 | 930 | 590 | 1460 | T/C (HCT-116 [7]): 57%; inhibition in vivo at 30 mg/kg (HCT-116 [8]): 36%
CN1c2ccccc2C(=O)N2[C@H](C(=O)Nc3ccc(C(=O)Nc4ccccc4N)cc3)Cc3c([nH]c4ccccc34)[C@@H]12 | – | – | – | – | – | – | – | – | – | – | IC50 (MCF7 [9]): 18 nM; inhibition in vivo at 150 mg/kg (HCT-116 [10]): 75.2%
COc1cc2c(cc1OCc1ccc(C(=O)Nc3ccccc3N)cc1)CC[C@@H]1[C@H]3CC[C@@H](O)[C@]3(C)CC[C@@H]21 | – | – | – | – | – | – | – | – | – | – | IC50 (U-937): 371 nM; IC50 [11]: 120 nM; IC50 (HepG2 [12]): 370 nM; IC50 (HeLa [13]): 370 nM; IC50 (MCF7 [14]): 370 nM; IC50 (MGC-803): 370 nM; IC50 (Histone deacetylase 2 [15]): 60 nM
CCN1CCN(c2cc(Nc3ncc(C(=O)Nc4ccccc4N)s3)ncn2)CC1 | – | – | – | – | – | – | – | – | – | – | IC50 (Histone deacetylase [16]): 15000 nM
Nc1ccccc1NC(=O)CCCCCOc1no[n+]([O-])c1S(=O)(=O)c1ccccc1 | 2500 | 770 | 410 | 560 | 980 | 1500 | 470 | 770 | 540 | 1140 | –
Nc1ccccc1NC(=O)c1ccc(NC(=O)Cc2ccc(N3Cc4ccc(O)cc4OC3=O)cc2)cc1 | – | – | – | – | – | – | – | – | – | – | IC50 (Histone deacetylase 1 [17]): 200 nM; IC50 (Histone deacetylase 2 [18]): 1100 nM; IC50 [19]: 180 nM; IC50 (Histone deacetylase 3 [20]): 600 nM
CC(C)S(=O)(=O)c1ccccc1Nc1nc(Nc2ccc(C(=O)Nc3ccccc3N)cc2)ncc1Cl | – | – | – | – | – | – | – | – | – | – | IC50 (HepG2 [21]): 10 nM; IC50 (A549 [22]): 2 nM; IC50 (SK-N-BE(2)): 3 nM; IC50 (NCI-H2228): 110 nM
CC(C)C[C@@H](NC(=O)[C@H](Cc1ccccc1)NC(=O)c1ccc(C(=O)Nc2ccccc2N)cc1)B1OC2CC3CC(C3(C)C)[C@@]2(C)O1 (some centres not stated) | – | – | – | – | – | – | – | – | – | – | IC50 (RPMI-8226): 37.1 nM; IC50 [23]: 112 nM; inhibition [24]: 33%
COc1ccc(C(=O)Nc2ccc(NC(=O)Nc3ccccc3N)cc2)cc1 | – | – | – | – | – | – | – | 5290 | – | – | IC50 (Ephrin type-A receptor 2): 570 nM; IC50 (MCF7 [25]): 7420 nM; IC50 (Histone deacetylase [26]): 1520 nM
